Data from EP3717657B1, “A SYSTEM FOR ASSESSING MICROBIAL SUSCEPTIBILITY TO ANTIBIOTIC AGENTS” (Ascilion AB, priority 2017, dated 2019).
Values after ≈ are worked out from the molar mass of the structure shown.

Legend:
[1] = tested on: Staphylococcus aureus (ATCC 29213); assay: Antibiotic susceptibility by glucose consumption in culture medium, blood culture bottle inoculum (Example 1); assay type: cell-based; details: for Glucose concentration t=0: 0 minutes; for Glucose concentration t=60: 60 minutes; for Glucose concentration t=120: 120 minutes; for Glucose concentration t=180: 180 minutes; for Glucose concentration t=240: 240 minutes; for dC/dT: rate of change in glucose concentration;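 on dC/dT: rate calculated between the 60 and 180 min readings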
Procedure: (§1) Strains of Escherichia coli (ATCC 25922), Enterococcus faecalis (ATCC 29212) and Staphylococcus aureus (ATCC 29213) were inoculated in blood culture bottles (SVA, Uppsala, Sweden) and cultivated according to the manufacturer's instructions until positive.
(§2) Medium from each blood culture bottle was diluted 1:100 with cation adjusted Mueller-Hinton broth (SVA, Uppsala, Sweden) supplemented with glucose to a concentration of 1.0 mg/mL.
(§3) Table 1: Concentrations of antibiotic agents are given in µg/mL.
(§4) Glucose concentrations were measured at 0, 60, 120, 180, and 240 minutes using a WaveSense Jazz glucometer (AgaMatrix, Inc., Salem, NH, USA) with accompanying test strips.
(§5) Susceptibility scores corresponding to MIC values were calculated as described above. A 80% threshold was applied, i.e. the lowest concentration of antibiotic that entailed a rate of change in glucose concentration that was equal to or less than 80% of the reference was selected as the Minimal Inhibitory Concentration. The rate of change was calculated between the measurements at 60 and 180 minutes.

[2] = tested on: Escherichia coli (ATCC 25922); assay: as above; assay type: cell-based; details: for Glucose concentration t=0: 0 minutes; for Glucose concentration t=60: 60 minutes; for Glucose concentration t=120: 120 minutes; for Glucose concentration t=180: 180 minutes; for dC/dT: rate of change in glucose concentration; for Glucose concentration t=240: 240 minutes;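 on dC/dT: rate calculated between the 60 and 180 min readings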
Procedure: as §1, §2, §3, §4, §5

## CO[C@@]1(NC(=O)Cc2cccs2)C(=O)N2C(C(=O)O)=C(COC(N)=O)CS[C@@H]21 [Cefoxitin]
[1]; Staphylococcus aureus, ATCC29213, S.aureus, 80% threshold of rate of change vs reference, between 60 and 180 minutes, obtained in 4 hours, read-out: MIC Measured
  MIC: 2 µg/mL (≈ 4.68 µM)
[1]; [Ab] 0,5 µg/mL
  F=the rate of change in glucose concentration in relation to the reference: 96%
  Glucose concentration t=0: 144
  Glucose concentration t=60: 155
  Glucose concentration t=120: 130
  Glucose concentration t=180: 91
  Glucose concentration t=240: 32
  dC/dT: 32
[1]; [Ab] 0,25 µg/mL
  F=the rate of change in glucose concentration in relation to the reference: 91%
  Glucose concentration t=0: 143
  Glucose concentration t=60: 152
  Glucose concentration t=120: 132
  Glucose concentration t=180: 91
  Glucose concentration t=240: 33
  dC/dT: 31
[1]; [Ab] 1 µg/mL
  F=the rate of change in glucose concentration in relation to the reference: 82%
  Glucose concentration t=0: 147
  Glucose concentration t=60: 155
  Glucose concentration t=120: 133
  Glucose concentration t=180: 100
  Glucose concentration t=240: 40
  dC/dT: 28
[1]; [Ab] 2 µg/mL
  F=the rate of change in glucose concentration in relation to the reference: 72%
  Glucose concentration t=0: 141
  Glucose concentration t=60: 146
  Glucose concentration t=120: 143
  Glucose concentration t=180: 98
  Glucose concentration t=240: 61
  dC/dT: 24
[1]; [Ab] 4 µg/mL
  F=the rate of change in glucose concentration in relation to the reference: 16%
  Glucose concentration t=0: 142
  Glucose concentration t=60: 150
  Glucose concentration t=120: 143
  Glucose concentration t=180: 139
  Glucose concentration t=240: 139
  dC/dT: 6
[1]; [Ab] 8 µg/mL
  F=the rate of change in glucose concentration in relation to the reference: 24%
  Glucose concentration t=0: 136
  Glucose concentration t=60: 157
  Glucose concentration t=120: 160
  Glucose concentration t=180: 141
  Glucose concentration t=240: 149
  dC/dT: 8
[1]; [Ab] 16 µg/mL
  F=the rate of change in glucose concentration in relation to the reference: 22%
  Glucose concentration t=0: 140
  Glucose concentration t=60: 157
  Glucose concentration t=120: 152
  Glucose concentration t=180: 142
  Glucose concentration t=240: 142
  dC/dT: 8
[1]; [Ab] 32 µg/mL
  F=the rate of change in glucose concentration in relation to the reference: 27%
  Glucose concentration t=0: 145
  Glucose concentration t=60: 154
  Glucose concentration t=120: 145
  Glucose concentration t=180: 136
  Glucose concentration t=240: 139
  dC/dT: 9
[2]; Escherichia coli, ATCC25922, E.coli, 80% threshold of rate of change vs reference, between 60 and 180 minutes, obtained in 4 hours, read-out: MIC Measured
  MIC: 4 µg/mL (≈ 9.36 µM)
[2]; [Ab] 0,5 µg/mL
  F=the rate of change in glucose concentration in relation to the reference: 139%
  Glucose concentration t=0: 139
  Glucose concentration t=60: 154
  Glucose concentration t=120: 140
  Glucose concentration t=180: 54
  dC/dT: 86
[2]; [Ab] 0,25 µg/mL
  F=the rate of change in glucose concentration in relation to the reference: 165%
  Glucose concentration t=0: 145
  Glucose concentration t=60: 157
  Glucose concentration t=120: 143
  Glucose concentration t=180: 41
  dC/dT: 102
[2]; [Ab] 1 µg/mL
  F=the rate of change in glucose concentration in relation to the reference: 129%
  Glucose concentration t=0: 144
  Glucose concentration t=60: 150
  Glucose concentration t=120: 143
  Glucose concentration t=180: 63
  dC/dT: 80
[2]; [Ab] 2 µg/mL
  F=the rate of change in glucose concentration in relation to the reference: 102%
  Glucose concentration t=0: 143
  Glucose concentration t=60: 163
  Glucose concentration t=120: 138
  Glucose concentration t=180: 75
  dC/dT: 63
[2]; [Ab] 4 µg/mL
  F=the rate of change in glucose concentration in relation to the reference: 19%
  Glucose concentration t=0: 146
  Glucose concentration t=60: 149
  Glucose concentration t=120: 140
  Glucose concentration t=180: 125
  Glucose concentration t=240: 116
  dC/dT: 12
[2]; [Ab] 8 µg/mL
  F=the rate of change in glucose concentration in relation to the reference: 18%
  Glucose concentration t=0: 145
  Glucose concentration t=60: 164
  Glucose concentration t=120: 149
  Glucose concentration t=180: 132
  Glucose concentration t=240: 127
  dC/dT: 11
[2]; [Ab] 16 µg/mL
  F=the rate of change in glucose concentration in relation to the reference: 6%
  Glucose concentration t=0: 142
  Glucose concentration t=60: 152
  Glucose concentration t=120: 152
  Glucose concentration t=180: 141
  Glucose concentration t=240: 145
  dC/dT: 4
[2]; [Ab] 32 µg/mL
  F=the rate of change in glucose concentration in relation to the reference: 5%
  Glucose concentration t=0: 146
  Glucose concentration t=60: 150
  Glucose concentration t=120: 143
  Glucose concentration t=180: 142
  Glucose concentration t=240: 137
  dC/dT: 3
